The record followed here is EPA's ToxValDB 9.5 (doi:10.2903/j.efsa.2010.1337).

A word on the NOAEL: it is the highest dose or exposure tested at which no adverse effect was seen.

One data set has as its system Rattus norvegicus. The conditions noted are these: chronic; duration: 2 years.
As for `SCS` [Methanedithiol], the NOEL amounted to 15 mg/kg-day. On the same count and under the same terms, as for `C=O` [Formaldehyde], the figure is 15 mg/kg-day.

Staying with this data set, now noted: chronic; duration: 91 days.
Molecule `CCC1SSC(CC)S1` (stereo not drawn) [3,5-Diethyl-1,2,4-trithiolane] returned an NOEL of 1.9 mg/kg-day. The same measure, in the same setting: as for `CC1SSC(C)S1` (stereo not drawn) [3,5-Dimethyl-1,2,4-trithiolane], the figure is 1.9 mg/kg-day.

The same data set, now with this note: short-term; duration: 28 days.
Turning to `CC=O` [Acetaldehyde], the NOEL is 125 mg/kg-day. In turn, `CC(S)S` [Ethane-1,1-dithiol] displayed an NOEL of 125 mg/kg-day. Take `C=CCSC[C@H](N)C(=O)O` [S-Allylcysteine]: the NOEL came to 250 mg/kg-day.

Still in this data set, the particulars now being: subchronic; duration: 90 days.
Molecule `CC1SCCSS1` (stereo not drawn) [1,2,4-Trithiane, 3-methyl-] had an NOEL of 0.3 mg/kg-day. The same measure, in the same setting: as for `CSCS` [Methylthiomethylmercaptan], the figure is 0.3 mg/kg-day; as for `Cc1cccc(C)c1S` [Benzenethiol, 2,6-dimethyl-], 0.43 mg/kg-day. For the molecule `C=CCSSCCC` [Allyl propyl disulfide], the NOEL came out at 4.6 mg/kg-day. As to `CC(S)c1ccccc1` (stereo not drawn) [Benzenemethanethiol, .alpha.-methyl-], the NOEL stood at 0.43 mg/kg-day.

With `C=CCSSSCC=C` [Diallyl trisulfide], the NOEL came to 4.6 mg/kg-day. In turn, `COc1ccccc1S` [Benzenethiol, 2-methoxy-] came in with an NOEL of 0.51 mg/kg-day.

`Cc1ccccc1S` [2-Methylbenzenethiol]: the NOEL is 0.51 mg/kg-day.

The same data set, now with this note: subchronic; duration: 90 days; oral.
In the case of `CC(S)C(C)S` (stereo not drawn) [2,3-Butanedithiol], the NOEL is 0.7 mg/kg-day. The same measure, in the same setting: as for `CCC(S)SC(S)CC` (stereo not drawn) [1,1'-Sulfanediyldi(propane-1-thiol)], the figure is 0.7 mg/kg-day.

Test system in another data set: not given
The conditions noted are these: subchronic; duration: 90 days.
In the case of `C1CCC(SSC2CCCCC2)CC1` [Dicyclohexyl disulfide], the NOAEL turned out to be 0.23 mg/kg-day.
